Here are results for 32 compounds from patent US8003649B2 (AstraZeneca AB, priority 2007, dated 2011).

Each structure is given as a SMILES string.

For this experiment, the target named is T1, Androgen Receptor (AR) (Homo sapiens, UniProt P10275, T878A).
T1 construct: cell based immuno-fluorescence assay using the LNCaP prostate epithelial cell line; endogenous in cells; host or cells: LNCaP clone FGC (ATCC CRL-1740)
T1 sequence (P10275 1-920 T878A): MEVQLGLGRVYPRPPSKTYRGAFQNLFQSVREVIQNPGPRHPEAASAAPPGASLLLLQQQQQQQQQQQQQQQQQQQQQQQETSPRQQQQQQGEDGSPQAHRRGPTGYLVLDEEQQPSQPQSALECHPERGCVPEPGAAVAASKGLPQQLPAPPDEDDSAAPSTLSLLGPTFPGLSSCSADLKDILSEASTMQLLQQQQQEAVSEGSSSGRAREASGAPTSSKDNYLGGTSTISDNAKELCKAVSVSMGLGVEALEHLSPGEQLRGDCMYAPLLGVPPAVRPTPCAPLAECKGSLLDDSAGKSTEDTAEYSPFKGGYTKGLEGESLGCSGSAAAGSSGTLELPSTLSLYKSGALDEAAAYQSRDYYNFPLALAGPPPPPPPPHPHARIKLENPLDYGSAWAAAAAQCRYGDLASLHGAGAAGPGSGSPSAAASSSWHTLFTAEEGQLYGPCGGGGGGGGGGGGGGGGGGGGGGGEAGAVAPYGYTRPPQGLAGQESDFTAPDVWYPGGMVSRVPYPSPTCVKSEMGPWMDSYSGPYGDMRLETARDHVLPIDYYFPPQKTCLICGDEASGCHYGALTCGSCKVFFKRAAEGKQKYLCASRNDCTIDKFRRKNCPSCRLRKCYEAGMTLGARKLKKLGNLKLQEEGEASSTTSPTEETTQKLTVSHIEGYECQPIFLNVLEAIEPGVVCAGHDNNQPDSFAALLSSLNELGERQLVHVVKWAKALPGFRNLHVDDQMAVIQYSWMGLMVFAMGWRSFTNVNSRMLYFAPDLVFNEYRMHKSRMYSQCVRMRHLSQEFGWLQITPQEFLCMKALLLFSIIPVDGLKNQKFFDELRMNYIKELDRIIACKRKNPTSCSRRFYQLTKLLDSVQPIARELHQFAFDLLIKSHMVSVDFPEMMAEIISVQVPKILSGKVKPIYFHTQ
Briefly: LNCaP Androgen Receptor Down-regulation Cell Assay (immunofluorescence end point). Type of experiment: cell-based. Conditions: LNCaP prostate carcinoma cells, compound incubation 20-22 hours, 50% reduction of the AR signal; read-out: Androgen Receptor Down-regulation Assay (a) IC50/μM. In a few lines: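 LNCaP cells in medium with 5% charcoal-stripped FBS were plated overnight, then treated with a compound dilution series for 20-22 h at 37° C. After fixation, permeabilisation and immunostaining, AR-associated green fluorescence was quantified by laser-scanning microplate cytometry; AR down-regulation expressed as IC50 from fitted dose-response curves.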
For the compound `Fc1ccc(CN2CCN(c3ccc4nnc(C(F)(F)F)n4c3)CC2)cc1` [Example 191, 6-[4-[(4-fluorophenyl)methyl]piperazin-1-yl]-3-(trifluoromethyl)-[1,2,4]triazolo[4,3-a]pyridine], the DC50 was found to be 2.1 µM.

As for `COc1ccc(CN2CCN(c3ccc4nnc(C(F)(F)F)n4c3)CC2)cc1` [Example 192, 6-[4-[(4-methoxyphenyl)methyl]piperazin-1-yl]-3-(trifluoromethyl)-[1,2,4]triazolo[4,3-a]pyridine], the DC50 was 8.7 µM.

For `FC(F)(F)c1nnc2ccc(N3CC4CN(Cc5ccncc5)CC4C3)nn12` (centres unmarked) [Example 193, 6-[2-(pyridin-4-ylmethyl)-1,3,3a,4,6,6a-hexahydropyrrolo[3,4-c]pyrrol-5-yl]-3-(trifluoromethyl)-[1,2,4]triazolo[4,3-b]pyridazine], the DC50 worked out at 2 µM.

In the case of `COc1cccc(CN2CC3CN(c4ccc5nnc(C(F)(F)F)n5n4)CC3C2)c1` (centres unmarked) [Example 194, 6-[2-[(3-methoxyphenyl)methyl]-1,3,3a,4,6,6a-hexahydropyrrolo[3,4-c]pyrrol-5-yl]-3-(trifluoromethyl)-[1,2,4]triazolo[4,3-b]pyridazine], the DC50 was determined as 2.4 µM.

With `FC(F)(F)c1cccc(CN2CC3CN(c4ccc5nnc(C(F)(F)F)n5n4)CC3C2)c1` (centres unmarked) [Example 196, 3-(trifluoromethyl)-6-[2-[[3-(trifluoromethyl)phenyl]methyl]-1,3,3a,4,6,6a-hexahydropyrrolo[3,4-c]pyrrol-5-yl]-[1,2,4]triazolo[4,3-b]pyridazine], the DC50 stood at 1.5 µM.

On to `N#Cc1cccc(CN2CC3CN(c4ccc5nnc(C(F)(F)F)n5n4)CC3C2)c1` (centres unmarked) [Example 197, 3-[[5-[3-(trifluoromethyl)-[1,2,4]triazolo[4,3-b]pyridazin-6-yl]-1,3,3a,4,6,6a-hexahydropyrrolo[3,4-c]pyrrol-2-yl]methyl]benzonitrile], for which the DC50 amounted to 0.82 µM.

As for `FC(F)(F)c1ccc(CN2CC3CN(c4ccc5nnc(C(F)(F)F)n5n4)CC3C2)cc1` (centres unmarked) [Example 199, 3-(trifluoromethyl)-6-[2-[[4-(trifluoromethyl)phenyl]methyl]-1,3,3a,4,6,6a-hexahydropyrrolo[3,4-c]pyrrol-5-yl]-[1,2,4]triazolo[4,3-b]pyridazine], the DC50 was found to be 1.9 µM.

On to `FC(F)(F)c1ccc(CN2CC3CN(c4ccc5nnc(C(F)(F)F)n5n4)CC3C2)cn1` (centres unmarked) [Example 201, 3-(trifluoromethyl)-6-[2-[[6-(trifluoromethyl)pyridin-3-yl]methyl]-1,3,3a,4,6,6a-hexahydropyrrolo[3,4-c]pyrrol-5-yl]-[1,2,4]triazolo[4,3-b]pyridazine], for which the DC50 came to 1.7 µM.

On to `Fc1ccc(CN2CC3CN(c4ccc5nnc(C(F)(F)F)n5n4)CC3C2)cc1` (centres unmarked) [Example 203, 6-[2-[(4-fluorophenyl)methyl]-1,3,3a,4,6,6a-hexahydropyrrolo[3,4-c]pyrrol-5-yl]-3-(trifluoromethyl)-[1,2,4]triazolo[4,3-b]pyridazine], for which the DC50 amounted to 1.7 µM.

With `FC(F)(F)c1nnc2ccc(N3CC4CN(Cc5ccc(Cl)cc5)CC4C3)nn12` (centres unmarked) [Example 204, 6-[2-[(4-chlorophenyl)methyl]-1,3,3a,4,6,6a-hexahydropyrrolo[3,4-c]pyrrol-5-yl]-3-(trifluoromethyl)-[1,2,4]triazolo[4,3-b]pyridazine], the DC50 amounted to 1.5 µM.

For the compound `N#Cc1ccc(CN2CC3CN(c4ccc5nnc(C(F)(F)F)n5n4)CC3C2)cc1` (centres unmarked) [Example 205, 4-[[5-[3-(trifluoromethyl)-[1,2,4]triazolo[4,3-b]pyridazin-6-yl]-1,3,3a,4,6,6a-hexahydropyrrolo[3,4-c]pyrrol-2-yl]methyl]benzonitrile], the DC50 is 0.53 µM.

Turning to `FC(F)(F)c1nnc2ccc(N3CC4CN(Cc5cccnc5)CC4C3)nn12` (centres unmarked) [Example 206, 6-[2-(pyridin-3-ylmethyl)-1,3,3a,4,6,6a-hexahydropyrrolo[3,4-c]pyrrol-5-yl]-3-(trifluoromethyl)-[1,2,4]triazolo[4,3-b]pyridazine], the DC50 amounted to 2 µM.

For `COc1cccc(C(=O)N2CC3CN(c4ccc5nnc(C(F)(F)F)n5n4)CC3C2)c1` (centres unmarked) [Example 207, (3-methoxyphenyl)-[2-[3-(trifluoromethyl)-[1,2,4]triazolo[4,3-b]pyridazin-6-yl]-1,3,3a,4,6,6a-hexahydropyrrolo[3,4-c]pyrrol-5-yl]methanone], the DC50 was 7.6 µM.

As to `FC(F)(F)c1nnc2ccc(N3CC4CN(Cc5ccccc5)CC4C3)nn12` (centres unmarked) [Example 210, 6-(5-benzyl-1,3,3a,4,6,6a-hexahydropyrrolo[3,4-c]pyrrol-2-yl)-3-(trifluoromethyl)-[1,2,4]triazolo[3,4-f]pyridazine], the DC50 was 1.8 µM.

As to `CC(C)(C)OC(=O)N1CC2CN(c3ccc4nnc(C(F)(F)F)n4n3)CC2C1` (centres unmarked) [Example 211, tert-butyl 5-(3-(trifluoromethyl)-[1,2,4]triazolo[4,3-b]pyridazin-6-yl)hexahydropyrrolo[3,4-c]pyrrole-2(1H)-carboxylate], the DC50 was determined as 8.2 µM.

Consider `Nc1ccc(CN2CCN(c3ccc4nnc(C(F)(F)F)n4n3)CC2)cc1` [Example 212, 4-((4-(3-(trifluoromethyl)-[1,2,4]triazolo[4,3-b]pyridazin-6-yl)piperazin-1-yl)methyl)aniline], for which the DC50 was found to be 3.7 µM.

Consider `O=C(Nc1ccc(F)cc1)N1CC2CN(c3ccc4nnc(C(F)(F)F)n4n3)CC2C1` (centres unmarked) [Example 213, N-(4-fluorophenyl)-2-[3-(trifluoromethyl)-[1,2,4]triazolo[3,4-f]pyridazin-6-yl]-1,3,3a,4,6,6a-hexahydropyrrolo[3,4-c]pyrrole-5-carboxamide], for which the DC50 was 4.5 µM.

Take `CCS(=O)(=O)N1CC2CN(c3ccc4nnc(C(F)(F)F)n4n3)CC2C1` (centres unmarked) [Example 215, 6-(5-ethylsulfonyl-1,3,3a,4,6,6a-hexahydropyrrolo[3,4-c]pyrrol-2-yl)-3-(trifluoromethyl)-[1,2,4]triazolo[3,4-f]pyridazine]: the DC50 came out at 7.4 µM.

For `C[C@@H]1CN(Cc2ccccc2)[C@@H](C)CN1c1ccc2nnc(C(F)(F)F)n2n1` [Example 216, 6-[(2R,5S)-4-benzyl-2,5-dimethylpiperazin-1-yl]-3-(trifluoromethyl)[1,2,4]triazolo[4,3-b]pyridazine], the DC50 was found to be 6.8 µM.

For the compound `C[C@@H]1CN(Cc2cccnc2)[C@@H](C)CN1c1ccc2nnc(C(F)(F)F)n2n1` [Example 217, 6-[(2R,5S)-2,5-dimethyl-4-(pyridin-3-ylmethyl)piperazin-1-yl]-3-(trifluoromethyl)[1,2,4]triazolo[4,3-b]pyridazine], the DC50 was determined as 3.7 µM.

On to `CC1CN(c2ccc3nnc(C(F)(F)F)n3n2)C(C)CN1Cc1ccc(C#N)cc1` (centres unmarked) [Example 218], for which the DC50 was more than 7.3 µM.

Regarding `CC1CN(c2ccc3nnc(C(F)(F)F)n3n2)C(C)CN1Cc1ccc(F)c(F)c1` (centres unmarked) [Example 219], the DC50 was 3.5 µM.

Regarding `CC1CN(c2ccc3nnc(C(F)(F)F)n3n2)C(C)CN1Cc1cc(F)cc(F)c1` (centres unmarked) [Example 220], the DC50 amounted to 3.6 µM.

On to `CC1CN(c2ccc3nnc(C(F)(F)F)n3n2)C(C)CN1Cc1ccc(F)c(C#N)c1` (centres unmarked) [Example 222], for which the DC50 turned out to be 2.6 µM.

`C[C@@H]1CN(c2ccc3nnc(C(F)(F)F)n3n2)[C@@H](C)CN1Cc1cccnc1` [Example 223, 6-[(2S,5R)-2,5-dimethyl-4-(pyridin-3-ylmethyl)piperazin-1-yl]-3-(trifluoromethyl)[1,2,4]triazolo[4,3-b]pyridazine]: the DC50 stood at 4.7 µM.

Turning to `Fc1ccccc1CCN1CCN(c2ccc3nnc(C(F)(F)F)n3n2)CC1` [Example 229, 6-[4-[2-(2-fluorophenyl)ethyl]piperazin-1-yl]-3-(trifluoromethyl)[1,2,4]triazolo[4,3-b]pyridazine], the DC50 came out at 1.9 µM.

As for `Fc1ccc(CCN2CCN(c3ccc4nnc(C(F)(F)F)n4n3)CC2)cc1` [Example 230], the DC50 turned out to be 2.1 µM.

Consider `FC(F)(F)c1nnc2ccc(N3CCN(CCc4ccc(Cl)cc4)CC3)nn12` [Example 231], for which the DC50 amounted to 2.1 µM.

Take `FC(F)(F)c1nnc2ccc(N3CCN(CCc4ccccc4Cl)CC3)nn12` [Example 232]: the DC50 is 3.6 µM.

As to `FC(F)(F)c1nnc2ccc(N3CCN(CCc4cccc(Cl)c4)CC3)nn12` [Example 233], the DC50 was 1.5 µM.

For the compound `Fc1cccc(CCN2CCN(c3ccc4nnc(C(F)(F)F)n4n3)CC2)c1` [Example 234], the DC50 came to 2 µM.

As to `N#Cc1ccc(CCN2CCN(c3ccc4nnc(C(F)(F)F)n4n3)CC2)cc1` [Example 235], the DC50 was determined as 1.9 µM.
